Data: the supplement of paper PMC10883282

How the values were obtained:
Experiment in all cases: relative viability vs DMSO control (72 h) (fraction); higher = more viable cells
KHOS-240S = test system: KHOS-240S
Procedure, shortened: (§1)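 After seeding at densities set for 80–90% confluence in 384-well plates, sarcoma cell lines waited 24 h before 2.5 µl of serially diluted compound was added. Source plates held 10 mM down to 0.0002 mM. Plates were incubated 72 h at 37 °C with 5% CO2, with 0.1% DMSO vehicle and a 5 µM positive control, and relative viability was taken from ATPLite as percent growth averaged over up to triplicate wells, with 1 set as full and 0 as none.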

MES-SA = test system: MES-SA
Procedure, shortened: as §1

RD = test system: RD
Procedure, shortened: as §1

SW1353 = test system: SW1353
Procedure, shortened: as §1

SYO-1 = test system: SYO-1
Procedure, shortened: as §1

Cc1[nH]c(/C=C2\C(=O)Nc3ccc(F)cc32)c(C)c1C(=O)NCCN1CCCC1 [Toceranib]
relative viability
Settings | KHOS-240S | MES-SA | RD | SW1353 | SYO-1
68 pM | 1.08 | 0.932 | 1.06 | 1.07 | 0.931
0.000203 µM | 1.105 | 0.9214 | 1.09 | 1.02 | 0.887
0.0006 µM | 1.08 | 0.926 | 1.14 | 1.02 | 0.835
0.0018 µM | 1.11 | 0.899 | 1.07 | 0.987 | 0.806
0.0055 µM | 1.03 | 0.915 | 1.08 | 0.994 | 0.721
0.0165 µM | 0.989 | 0.919 | 1.08 | 0.973 | 0.64
0.0494 µM | 0.974 | 0.9 | 1.11 | 0.964 | 0.587
0.1481 µM | 0.941 | 0.919 | 1.08 | 0.928 | 0.603
0.444 µM | 0.865 | 0.884 | 1.08 | 0.934 | 0.576
1.333 µM | 0.705 | 0.751 | 1.05 | 0.96 | 0.482
4 µM | 0.491 | 0.44 | 0.786 | 0.893 | 0.357

CC[C@@H]1CN(C(=O)NCC(F)(F)F)C[C@@H]1c1cnc2cnc3[nH]ccc3n12 [Upadacitinib]
relative viability
Settings | KHOS-240S | MES-SA | RD | SW1353 | SYO-1
0.00017 µM | 1.09 | 0.941 | 1.07 | 1.04 | 1.04
0.00051 µM | 1.06 | 0.949 | 1.08 | 1.04 | 1
0.00152 µM | 1.09 | 0.947 | 1.13 | 1.02 | 0.988
0.00457 µM | 1.1 | 0.939 | 1.13 | 1.04 | 0.978
0.01372 µM | 1.08 | 0.932 | 1.14 | 0.997 | 0.958
0.04115 µM | 1.09 | 0.92 | 1.14 | 1.01 | 0.934
0.1235 µM | 1.06 | 0.923 | 1.08 | 1.001 | 0.927
0.3704 µM | 1.04 | 0.936 | 1.14 | 0.942 | 0.894
1.111 µM | 0.982 | 0.885 | 1.14 | 0.937 | 0.826
3.333 µM | 0.919 | 0.873 | 1.07 | 0.84 | 0.764
10 µM | 0.708 | 0.812 | 1 | 0.686 | 0.592

CCc1cnn2c(NCc3ccc[n+]([O-])c3)cc(N3CCCC[C@H]3CCO)nc12 [Dinaciclib]
relative viability
Settings | KHOS-240S | MES-SA | RD | SW1353 | SYO-1
0.00017 µM | 0.954 | 0.994 | 0.828 | 1.05 | 0.982
0.00051 µM | 0.976 | 1.04 | 0.851 | 1.08 | 0.998
0.00152 µM | 0.966 | 0.957 | 0.821 | 1.07 | 0.982
0.00457 µM | 0.913 | 0.912 | 0.736 | 1.07 | 0.908
0.01372 µM | 0.45 | 0.383 | 0.504 | 0.944 | 0.28
0.04115 µM | 0.214 | 0.0374 | 0.163 | 0.238 | 0.248
0.1235 µM | 0.207 | 0.0354 | 0.162 | 0.238 | 0.256
0.3704 µM | 0.21 | 0.0357 | 0.137 | 0.242 | 0.294
1.111 µM | 0.218 | 0.0288 | 0.119 | 0.235 | 0.288
3.333 µM | 0.213 | 0.0272 | 0.103 | 0.234 | 0.295
10 µM | 0.181 | 0.0262 | 0.0835 | 0.219 | 0.305

CC#CC(=O)N1CCC[C@H]1c1nc(-c2ccc(C(=O)Nc3ccccn3)cc2)c2c(N)nccn12 [Acalabrutinib]
relative viability
Settings | KHOS-240S | MES-SA | RD | SW1353 | SYO-1
0.00017 µM | 1.06 | 0.914 | 1.13 | 0.974 | 0.958
0.00051 µM | 1.06 | 0.905 | 1.13 | 0.933 | 0.946
0.00152 µM | 1.07 | 0.937 | 1.12 | 0.942 | 0.941
0.00457 µM | 1.09 | 0.914 | 1.15 | 0.946 | 0.937
0.01372 µM | 1.06 | 0.908 | 1.13 | 0.947 | 0.945
0.04115 µM | 1.06 | 0.909 | 1.09 | 0.944 | 0.932
0.1235 µM | 1.03 | 0.912 | 1.06 | 0.957 | 0.94
0.3704 µM | 1.04 | 0.926 | 1.06 | 0.936 | 0.934
1.111 µM | 1.041 | 0.909 | 1.09 | 0.962 | 0.928
3.333 µM | 1.04 | 0.914 | 1.13 | 0.8927 | 0.948
10 µM | 1.05 | 0.907 | 1.07 | 0.827 | 0.898
